From PubChem BioAssay AID1845202 (Molecular Pharmacology Branch, DTP, NCI, 2023)

Test system: DMS 114 tumor spheroids, viability % test/control
Assay: Anticancer human tumor DMS 114 cell line growth inhibition;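 also: spheroids exposed to compounds for 7 days before read-out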;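 as to viability, T/C: luminescence used as a proxy for viable cells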
Conditions: spheroids with HUVEC and MSC; for IC50: curve of first compound; for viability, T/C: stronger effect = lower value
Procedure, shortened: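 Complex tumor spheroids combined malignant cells with endothelial cells and mesenchymal stem cells. DNA-damaging drugs and DNA repair inhibitors were tested alone and in combination, at half-log dilutions down from clinical Cmax (top 10 microM if Cmax unknown), 0.25% DMSO final.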

Cc1cc(C)c(CNC(=O)c2cc(-c3ccc(CN4CCOCC4)cc3)cc3c2cnn3C2CCCC2)c(=O)[nH]1 + Cn1nnc2c(C(N)=O)ncn2c1=O
IC50 (second compound 1 µM): > 10 µM | IC50 (second compound 3.16 µM): > 10 µM | IC50 (second compound 10 µM): > 10 µM | IC50 (second compound 31.6 µM): > 10 µM | IC50 (second compound 100 µM): > 10 µM | viability, T/C (second compound 1 µM, first compound 0.0316 µM): 100% | viability, T/C (second compound 1 µM, first compound 0.1 µM): 103% | viability, T/C (second compound 1 µM, first compound 0.316 µM): 104% | viability, T/C (second compound 1 µM, first compound 1 µM): 110% | viability, T/C (second compound 1 µM, first compound 3.16 µM): 110% | viability, T/C (second compound 1 µM, first compound 10 µM): 64.3% | viability, T/C (second compound 3.16 µM, first compound 0.0316 µM): 110% | viability, T/C (second compound 3.16 µM, first compound 0.1 µM): 108% | viability, T/C (second compound 3.16 µM, first compound 0.316 µM): 108% | viability, T/C (second compound 3.16 µM, first compound 1 µM): 114% | viability, T/C (second compound 3.16 µM, first compound 3.16 µM): 120% | viability, T/C (second compound 3.16 µM, first compound 10 µM): 69.3% | viability, T/C (second compound 10 µM, first compound 0.0316 µM): 110% | viability, T/C (second compound 10 µM, first compound 0.1 µM): 106% | viability, T/C (second compound 10 µM, first compound 0.316 µM): 111% | viability, T/C (second compound 10 µM, first compound 1 µM): 115% | viability, T/C (second compound 10 µM, first compound 3.16 µM): 120% | viability, T/C (second compound 10 µM, first compound 10 µM): 65.9% | viability, T/C (second compound 31.6 µM, first compound 0.0316 µM): 113% | viability, T/C (second compound 31.6 µM, first compound 0.1 µM): 107% | viability, T/C (second compound 31.6 µM, first compound 0.316 µM): 109% | viability, T/C (second compound 31.6 µM, first compound 1 µM): 111% | viability, T/C (second compound 31.6 µM, first compound 3.16 µM): 103% | viability, T/C (second compound 31.6 µM, first compound 10 µM): 65.1% | viability, T/C (second compound 100 µM, first compound 0.0316 µM): 103% | viability, T/C (second compound 100 µM, first compound 0.1 µM): 103% | viability, T/C (second compound 100 µM, first compound 0.316 µM): 98.8% | viability, T/C (second compound 100 µM, first compound 1 µM): 90.1% | viability, T/C (second compound 100 µM, first compound 3.16 µM): 80.4% | viability, T/C (second compound 100 µM, first compound 10 µM): 51.6%

O=C(c1cc(Cc2n[nH]c(=O)c3ccccc23)ccc1F)N1CCN(C(=O)C2CC2)CC1 + CC[C@@]1(O)C(=O)OCc2c1cc1n(c2=O)Cc2cc3c(CN(C)C)c(O)ccc3nc2-1
IC50 (second compound 0.003 µM): 5.04 µM | IC50 (second compound 0.00949 µM): 1.83 µM | IC50 (second compound 0.03 µM): < 0.0949 µM | IC50 (second compound 0.0949 µM): < 0.0949 µM | IC50 (second compound 0.3 µM): < 0.0949 µM | viability, T/C (second compound 0.003 µM, first compound 0.0949 µM): 104% | viability, T/C (second compound 0.003 µM, first compound 0.3 µM): 98.3% | viability, T/C (second compound 0.003 µM, first compound 0.949 µM): 96.9% | viability, T/C (second compound 0.003 µM, first compound 3 µM): 68.6% | viability, T/C (second compound 0.003 µM, first compound 9.49 µM): 27.3% | viability, T/C (second compound 0.003 µM, first compound 30 µM): 19.7% | viability, T/C (second compound 0.00949 µM, first compound 0.0949 µM): 69.3% | viability, T/C (second compound 0.00949 µM, first compound 0.3 µM): 64.6% | viability, T/C (second compound 0.00949 µM, first compound 0.949 µM): 64.9% | viability, T/C (second compound 0.00949 µM, first compound 3 µM): 39.1% | viability, T/C (second compound 0.00949 µM, first compound 9.49 µM): 23.8% | viability, T/C (second compound 0.00949 µM, first compound 30 µM): 18% | viability, T/C (second compound 0.03 µM, first compound 0.0949 µM): 24% | viability, T/C (second compound 0.03 µM, first compound 0.3 µM): 21.4% | viability, T/C (second compound 0.03 µM, first compound 0.949 µM): 22.6% | viability, T/C (second compound 0.03 µM, first compound 3 µM): 17.8% | viability, T/C (second compound 0.03 µM, first compound 9.49 µM): 13.2% | viability, T/C (second compound 0.03 µM, first compound 30 µM): 12.6% | viability, T/C (second compound 0.0949 µM, first compound 0.0949 µM): 12.9% | viability, T/C (second compound 0.0949 µM, first compound 0.3 µM): 13.9% | viability, T/C (second compound 0.0949 µM, first compound 0.949 µM): 13.4% | viability, T/C (second compound 0.0949 µM, first compound 3 µM): 11.2% | viability, T/C (second compound 0.0949 µM, first compound 9.49 µM): 9.09% | viability, T/C (second compound 0.0949 µM, first compound 30 µM): 9.45% | viability, T/C (second compound 0.3 µM, first compound 0.0949 µM): 8.39% | viability, T/C (second compound 0.3 µM, first compound 0.3 µM): 8.45% | viability, T/C (second compound 0.3 µM, first compound 0.949 µM): 9.03% | viability, T/C (second compound 0.3 µM, first compound 3 µM): 6.88% | viability, T/C (second compound 0.3 µM, first compound 9.49 µM): 5.76% | viability, T/C (second compound 0.3 µM, first compound 30 µM): 6.93%
